Read-outs that look alike come from different tables or passages of the source.
Key:
human recombinant BACE2 = human recombinant BACE2 (Homo sapiens (Human), UniProt Q9Y5Z0); test: In vitro enzymatic BACE2 FRET assay; format: biochemical; settings: read-out: IC50 IP (μM) BACE2 enzyme
Outline: (§1)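 Reactions were initiated by adding 50 nM of a peptide carrying fluorophore and quencher on opposite sides of the cleavage site and ran for one hour. Tris buffer then brought the pH to neutrality, ending the reaction, and fluorescence was measured (488 nm excitation, 590 nm emission).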

[1] = tested on: Aβ40 in conditioned medium of cells stably expressing Amyloid Precursor Protein (APP); test: In vitro BACE-1 cell-based assay (Aβ40 sandwich ELISA); settings: read-out: IC50 IP (μM) BACE1 cell
Outline: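 Aβ40 in supernatants measured by time-resolved fluorescence sandwich ELISA, with pAb40 as capture and biotin-6E10 as detector antibody, each incubated at 4 °C.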

Recombinant Cat D = Recombinant Cat D (Homo sapiens (Human), UniProt P07339); test: In vitro enzymatic Cathepsin D (Cat D) FRET assay; format: biochemical; settings: read-out: IC50 IP (μM) CatD
Chain of Recombinant Cat D (P07339 65-412): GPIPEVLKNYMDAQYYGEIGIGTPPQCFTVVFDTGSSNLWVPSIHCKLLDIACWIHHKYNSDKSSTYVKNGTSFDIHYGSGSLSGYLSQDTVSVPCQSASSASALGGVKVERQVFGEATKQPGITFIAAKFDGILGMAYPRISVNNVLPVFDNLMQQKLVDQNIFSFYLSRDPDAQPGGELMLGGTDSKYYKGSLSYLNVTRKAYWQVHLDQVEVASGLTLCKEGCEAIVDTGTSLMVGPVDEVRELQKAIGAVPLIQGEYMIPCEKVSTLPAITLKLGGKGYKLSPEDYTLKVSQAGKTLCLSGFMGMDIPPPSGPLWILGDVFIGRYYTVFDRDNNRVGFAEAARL
Outline: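 Recombinant Cat D expressed in CHO cells, assayed in 0.05 M citrate pH 3.5 with 5 mM CHAPS and 10% DMSO final. Reaction started with 20 nM FRET peptide substrate, incubated one hour, then stopped by Tris buffer to neutral pH; fluorescence read at ex 500/em 580 nm.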

human recombinant BACE1 = human recombinant BACE1 (Homo sapiens (Human), UniProt P56817); test: In vitro enzymatic BACE1 FRET assay; format: biochemical; settings: read-out: IC50 IP (μM) BACE1 enzyme
Chain of human recombinant BACE1 (P56817 46-501): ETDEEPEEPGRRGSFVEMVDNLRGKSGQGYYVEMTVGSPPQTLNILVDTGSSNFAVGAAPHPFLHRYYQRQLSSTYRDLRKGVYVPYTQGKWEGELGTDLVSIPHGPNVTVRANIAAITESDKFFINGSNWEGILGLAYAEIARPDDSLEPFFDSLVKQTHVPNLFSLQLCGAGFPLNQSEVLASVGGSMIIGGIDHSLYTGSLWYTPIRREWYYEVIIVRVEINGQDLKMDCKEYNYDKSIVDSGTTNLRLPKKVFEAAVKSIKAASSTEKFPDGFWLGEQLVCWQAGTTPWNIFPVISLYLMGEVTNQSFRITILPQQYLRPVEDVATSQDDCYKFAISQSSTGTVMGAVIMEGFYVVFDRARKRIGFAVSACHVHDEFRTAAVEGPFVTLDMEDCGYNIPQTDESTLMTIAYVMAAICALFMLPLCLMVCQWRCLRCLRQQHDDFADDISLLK
Outline: as §1

Chain of human recombinant BACE2 (Q9Y5Z0 63-518): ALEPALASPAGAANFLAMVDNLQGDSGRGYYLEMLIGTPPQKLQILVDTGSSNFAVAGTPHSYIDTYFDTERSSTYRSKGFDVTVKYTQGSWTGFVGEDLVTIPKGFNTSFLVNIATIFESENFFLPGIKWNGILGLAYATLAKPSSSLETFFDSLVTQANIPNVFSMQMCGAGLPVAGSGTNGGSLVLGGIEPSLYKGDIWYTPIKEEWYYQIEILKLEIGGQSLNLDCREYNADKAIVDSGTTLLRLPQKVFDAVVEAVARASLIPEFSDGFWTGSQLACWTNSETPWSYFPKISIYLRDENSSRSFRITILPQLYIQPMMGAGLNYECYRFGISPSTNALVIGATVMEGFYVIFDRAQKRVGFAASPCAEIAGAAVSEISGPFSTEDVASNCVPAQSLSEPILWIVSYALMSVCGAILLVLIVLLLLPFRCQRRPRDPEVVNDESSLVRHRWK

Row | IC50 (human recombinant BACE2; BACE2 FRET enzyme assay) [µM] | IC50 ([1]; BACE1 cell-based assay) [µM] | IC50 (Recombinant Cat D; Cathepsin D FRET enzyme assay) [µM] | IC50 (human recombinant BACE1; BACE1 FRET enzyme assay) [µM] | IC50 (human recombinant BACE2) [µM] | IC50 [1] [µM] | IC50 (Recombinant Cat D) [µM] | IC50 (human recombinant BACE1) [µM] | SMILES
1 | 0.0342 | 0.0108 | 1380 | 0.01 | – | – | – | – | COc1cnc2c(Nc3cc(F)c(F)c([C@@]4(C)N=C(N)S[C@@]5(CO)C[C@H]54)c3)nccc2n1 [Example 93, ((1S,5S,6S)-3-Amino-5-(2,3-difluoro-5-((2-methoxypyrido[3,4-b]pyrazin-5-yl)amino)phenyl)-5-methyl-2-thia-4-azabicyclo[4.1.0]hept-3-en-1-yl)methanol]
2 | – | – | – | – | < 0.00203 | 0.000487 | > 400 | 0.00085 | C[C@]1(c2cc(NC(=O)c3ccc(Cl)cn3)cc(CO)c2F)N=C(N)S[C@@]2(CO)C[C@H]21 [Example 858, N-(3-((1S,5S,6S)-3-amino-1-(hydroxymethyl)-5-methyl-2-thia-4-azabicyclo[4.1.0]hept-3-en-5-yl)-4-fluoro-5-(hydroxymethyl)phenyl)-5-chloropicolinamide]
3 | – | – | – | – | 0.0267 | 0.008 | 2100 | 0.00391 | C#CCOc1cnc(C(=O)Nc2ccc(F)c([C@@]3(C)N=C(N)S[C@@]4(COC)C[C@H]43)c2)c(C)c1 [Example 683, N-(3-((1S,5S,6S)-3-amino-1-(methoxymethyl)-5-methyl-2-thia-4-azabicyclo[4.1.0]hept-3-en-5-yl)-4-fluorophenyl)-3-methyl-5-(2-propyn-1-yloxy)-2-pyridinecarboxamide]
4 | – | – | – | – | 0.00881 | 0.00635 | 918 | 0.00409 | CCOC[C@]12C[C@H]1[C@@](CF)(c1cc(NC(=O)c3ncc(C#N)cc3C)ccc1F)N=C(N)S2 [Example 715, N-(3-((1S,5S,6S)-3-amino-1-(ethoxymethyl)-5-(fluoromethyl)-2-thia-4-azabicyclo[4.1.0]hept-3-en-5-yl)-4-fluorophenyl)-5-cyano-3-methyl-2-pyridinecarboxamide]
5 | 0.0156 | 0.00045 | 349 | 0.00045 | – | – | – | – | C#CCOc1cnc(C(=O)Nc2ccc(F)c([C@@]3(CF)N=C(N)S[C@@]4(CO)C[C@H]43)c2)cn1 [Example 53, N-(3-((1S,5S,6S)-3-amino-5-(fluoromethyl)-1-(hydroxymethyl)-2-thia-4-azabicyclo[4.1.0]hept-3-en-5-yl)-4-fluorophenyl)-5-(2-propyn-1-yloxy)-2-pyrazinecarboxamide]
6 | – | – | – | – | 0.101 | 0.00593 | 571 | 0.00223 | C#CCOc1cnc2c(Nc3cc(F)c(F)c([C@@]4(C)N=C(N)S[C@@]5(COC)C[C@H]54)c3)ncnc2c1 [Example 943, N-(3-((1S,5S,6S)-3-amino-1-(methoxymethyl)-5-methyl-2-thia-4-azabicyclo[4.1.0]hept-3-en-5-yl)-4,5-difluorophenyl)-7-(2-propyn-1-yloxy)pyrido[3,2-d]pyrimidin-4-amine]
7 | – | – | – | – | 0.658 | 0.022 | > 400 | > 16 | COC[C@]12C[C@H]1[C@@](C)(c1cc(NC(=O)c3cnc(OCC4(C)COC4)cn3)cc(F)c1F)N=C(N)S2 [Example 1062, N-(3-((1S,5S,6S)-3-amino-1-(methoxymethyl)-5-methyl-2-thia-4-azabicyclo[4.1.0]hept-3-en-5-yl)-4,5-difluorophenyl)-5-((3-methyl-3-oxetanyl)methoxy)-2-pyrazinecarboxamide]
8 | – | – | – | – | 0.498 | 0.022 | 1330 | 0.0079 | COC[C@]12C[C@H]1[C@@](C)(c1cc(NC(=O)c3cnc(OCC4COC4)cn3)ccc1F)N=C(N)S2 [Example 1055, N-(3-((1S,5S,6S)-3-amino-1-(methoxymethyl)-5-methyl-2-thia-4-azabicyclo[4.1.0]hept-3-en-5-yl)-4-fluorophenyl)-5-(3-oxetanylmethoxy)-2-pyrazinecarboxamide]
9 | 0.00126 | 0.0917 | 627 | 0.00464 | – | – | – | – | Cc1cc(Cl)cnc1C(=O)Nc1cc(F)c(F)c([C@@]2(CF)N=C(N)S[C@H]3C[C@H]32)c1 [Example 78, N-(3-((1S,5S,6S)-3-amino-5-(fluoromethyl)-2-thia-4-azabicyclo[4.1.0]hept-3-en-5-yl)-4,5-difluorophenyl)-5-chloro-3-methyl-2-pyridinecarboxamide]
10 | – | – | – | – | 0.00931 | 0.0138 | 196 | 0.000352 | C#CCOc1cnc(C(=O)Nc2cc(C)c(F)c([C@@]3(C)N=C(N)S[C@@]4(COC)C[C@H]43)c2)cn1 [Example 1043, N-(3-((1S,5S,6S)-3-amino-1-(methoxymethyl)-5-methyl-2-thia-4-azabicyclo[4.1.0]hept-3-en-5-yl)-4-fluoro-5-methylphenyl)-5-(2-propyn-1-yloxy)-2-pyrazinecarboxamide]
11 | – | – | – | – | 0.0224 | 0.015 | 1390 | 0.004 | C[C@]1(c2cc(NC(=O)c3cnc(OCC(F)(F)F)cn3)cc(F)c2F)N=C(N)S[C@@]2(C#N)C[C@H]21 [Example 940, N-(3-((1S,5S,6S)-3-amino-1-cyano-5-methyl-2-thia-4-azabicyclo[4.1.0]hept-3-en-5-yl)-4,5-difluorophenyl)-5-(2,2,2-trifluoroethoxy)-2-pyrazinecarboxamide]
12 | – | – | – | – | 0.00983 | 0.000345 | 143 | 0.00032 | C#CCOc1cnc(C(=O)Nc2cc(C)c(F)c([C@@]3(C)N=C(N)S[C@@]4(C(F)F)C[C@@H]34)c2)cn1 [Example 1072, N-(3-((1S,5S,6S)-3-amino-1-(difluoromethyl)-5-methyl-2-thia-4-azabicyclo[4.1.0]hept-3-en-5-yl)-4-fluoro-5-methylphenyl)-5-(prop-2-yn-1-yloxy)pyrazine-2-carboxamide]
13 | – | – | – | – | < 0.0061 | 0.00126 | 116 | 0.00022 | C#CCOc1cnc(C(=O)Nc2ccc(F)c([C@@]3(CF)N=C(N)S[C@@]4(c5cnco5)C[C@@H]34)c2)cn1 [Example 780, N-(3-((1S,5S,6S)-3-amino-5-(fluoromethyl)-1-(1,3-oxazol-5-yl)-2-thia-4-azabicyclo[4.1.0]hept-3-en-5-yl)-4-fluorophenyl)-5-(2-propyn-1-yloxy)-2-pyrazinecarboxamide]
14 | – | – | – | – | 0.00755 | 0.0108 | 16.3 | 0.00126 | CCC#CCOc1cnc2c(Nc3ccc(F)c([C@@]4(CF)N=C(N)S[C@@]5(/C=C/C(=O)N(C)C)C[C@H]54)c3)nccc2n1 [Example 952, (2E)-3-((1R,5S,6S)-3-amino-5-(fluoromethyl)-5-(2-fluoro-5-((2-(2-pentyn-1-yloxy)pyrido[3,4-b]pyrazin-5-yl)amino)phenyl)-2-thia-4-azabicyclo[4.1.0]hept-3-en-1-yl)-N,N-dimethyl-2-propenamide]
15 | – | – | – | – | < 0.00203 | 0.00557 | 141 | 0.002 | C[C@]1(c2cc(NC(=O)c3ccc(Cl)cn3)ccc2F)N=C(N)S[C@]2(CO)[C@H]1C2(F)F [Example 704, N-(3-((1S,5S,6R)-3-amino-7,7-difluoro-1-(hydroxymethyl)-5-methyl-2-thia-4-azabicyclo[4.1.0]hept-3-en-5-yl)-4-fluorophenyl)-5-chloro-2-pyridinecarboxamide]
16 | – | – | – | – | 0.0417 | 0.00518 | 1090 | 0.00314 | C#CCOc1cnc2c(Nc3ccc(F)c([C@@]4(CF)N=C(N)S[C@@]5(COC)C[C@H]54)c3)ncnc2c1 [Example 942, N-(3-((1S,5S,6S)-3-amino-5-(fluoromethyl)-1-(methoxymethyl)-2-thia-4-azabicyclo[4.1.0]hept-3-en-5-yl)-4-fluorophenyl)-7-(2-propyn-1-yloxy)pyrido[3,2-d]pyrimidin-4-amine]
17 | – | – | – | – | 0.245 | 0.0437 | > 400 | 0.00832 | COC[C@]12C[C@H]1[C@@](C)(c1cc(NC(=O)c3ncc(OCC(F)(F)F)nc3C)ccc1F)N=C(N)S2 [Example 620, N-(3-((1S,5S,6S)-3-amino-1-(methoxymethyl)-5-methyl-2-thia-4-azabicyclo[4.1.0]hept-3-en-5-yl)-4-fluorophenyl)-3-methyl-5-(2,2,2-trifluoroethoxy)-2-pyrazinecarboxamide]
18 | < 0.00203 | 0.0229 | > 400 | 0.00114 | – | – | – | – | NC1=N[C@](CF)(c2cc(NC(=O)c3ccc(Cl)cn3)cc(F)c2F)[C@@H]2C[C@]2(CF)S1 [Example 59, N-(3-((1S,5S,6S)-3-amino-1,5-bis(fluoromethyl)-2-thia-4-azabicyclo[4.1.0]hept-3-en-5-yl)-4,5-difluorophenyl)-5-chloro-2-pyridinecarboxamide]
19 | – | – | – | – | 0.115 | 0.0936 | 475 | 0.00496 | COC[C@]12C[C@H]1[C@@](C)(c1cc(NC(=O)c3cnc(OCC4CC(F)(F)C4)cn3)cc(F)c1F)N=C(N)S2 [Example 1026, N-(3-((1S,5S,6S)-3-amino-1-(methoxymethyl)-5-methyl-2-thia-4-azabicyclo[4.1.0]hept-3-en-5-yl)-4,5-difluorophenyl)-5-((3,3-difluorocyclobutyl)methoxy)-2-pyrazinecarboxamide]
